Measurements published in paper PMC9783868, “Indoline-5-Sulfonamides: A Role of the Core in Inhibition of Cancer-Related Carbonic Anhydrases, Antiproliferative Activity and Circumventing of Multidrug Resistance” (Pharmaceuticals, 2022).
Read-outs that look alike come from different tables or passages of the source.

What was measured:
[1] = tested on: K562/4 cells; assay: Reversal of chemoresistance to Dox, MTT test; format: cell-based, human
Source text: Earlier, Kopecka and colleagues have shown that CA XII can interact with P-gp and influence its activity. Subsequently, silencing or inhibition of CA XII by chemical agents may restore the sensitivity to Dox of resistant K562 and other tumor cells. Given the potent inhibition of 4f against CA XII and the activity of 4e against K562, we examined their ability to reverse the chemoresistance of K562/4 with P-gp to Dox.
(§1) The MCF7 human breast, A431 human skin cancer cells and K562 (ATCC CCL-243) chronic myelogenous leukemia cells were obtained from the ATCC collection. The MDR subline K562/4 [77] (kind gift of Dr. Alexander Shtil, Blokhin N.N. National Medical Research Center of Oncology) was obtained by stepwise selection of K562 cells for survival under continuous exposure to Dox. This subline expresses the MDR1 gene and functional P-gp and is characterized by a high resistance index for Dox. The MCF7 and A431 cells were cultured in standard 4.5 g/L glucose DMEM medium (Gibco) supplemented with 10% FCS (HyClone), 2 mM L-glutamine, 50 U/mL penicillin, 50 µg/mL streptomycin (PanEco), 100 µg/mL sodium pyruvate (Santa Cruz) at 37 °C, 5% CO2 and 80–85% humidity in NuAire incubator. Suspension myelogenous leukemia cells (K562, K562/4) were propagated in RPMI-1640 (PanEco) with 5% FCS (HyClone), 2 mM L-glutamine, 100 U/mL penicillin, and 100 µg/mL streptomycin at 37 °C, 5% CO2, and 80–85% humidity in Binder incubator. Cells in the logarithmic phase of growth were used in the experiments. The growth inhibitory activity of compounds was assessed by the MTT test based on the metabolism of the MTT reagent (3-[4,5-dimethylthiazol-2-yl]-2,5-diphenyltetrazolium bromide) (Applichem) in living cells, with modifications as described previously in [49]. Compounds at different concentrations in 100 μL of the appropriate medium were added, and the cells were grown for 72 h. The hypoxia (1% O2) conditions were simulated in Binder multigas incubator, as described in [49]. After incubation with compounds, the medium was removed, the MTT reagent that was dissolved in the medium was added to the final concentration of 0.2 mg/mL to each well, and the incubation was performed for 2 h. Then the cell supernatants were removed, and purple formazan crystals were dissolved in 100% DMSO (350 μL per well). Culture plates were gently shaken, and the absorbance was measured at 571 nm with a reference wavelength of 630 nm on a MultiScan reader (ThermoFisher, Waltham, MA, USA). The viability of the cells was expressed as a percentage of the control. Dose-response curves were analyzed by regression analysis using sigmoid curves (Log(concentration) vs. normalized absorbance).
Figure 6 Susceptibility of resistant K562/4 line to combinations of Dox (25 µM) with indoline-5-sulfonamides 4e and 4f. […]

[2] = tested on: MCF7 cells; assay: Antiproliferative activity, MTT test; format: cell-based; conditions: Homo sapiens, MTT assay after 72 h exposure
Procedure: A series of synthesized indoline-5-sulfonamides was tested on the MCF7 cancer cell line under normoxia and hypoxia using the MTT test.
as §1, with “The” for “The MCF7 human breast, A431 human skin cancer cells and K562 (ATCC CCL-243) chronic myelogenous leukemia cells were obtained from the ATCC collection. The”, “The MCF7 and A431 cells were cultured in standard 4.5 g/L glucose DMEM medium (Gibco) supplemented with 10% FCS (HyClone), 2 mM L-glutamine, 50 U/mL penicillin, 50 µg/mL streptomycin (PanEco), 100 µg/mL sodium pyruvate (Santa Cruz) at 37 °C, 5% CO2 and 80–85% humidity in NuAire incubator. Suspension myelogenous leukemia cells (K562, K562/4) were propagated in RPMI-1640 (PanEco) with 5% FCS (HyClone), 2 mM L-glutamine, 100 U/mL penicillin, and 100 µg/mL streptomycin at 37 °C, 5% CO2, and 80–85% humidity in Binder incubator.” left out
All results were reported as means ± SD. One-way analysis of variance was used for the analysis of data. Differences were defined as significant at p < 0.05. GraphPad Prism7 (GraphPad Software, San Diego, CA, USA) was used for the determination of the half-maximal inhibitory concentration (IC50) values.

[3] = tested on: A431 skin cancer cells; assay: Antiproliferative activity, MTT test; format: cell-based, human; conditions: 72 h, hypoxic conditions
Source text: To evaluate the influence of CA inhibition on the antiproliferative activity, we selected five compounds 4b, f, m, n and 10 with different inhibition profiles against CA IX for in-depth testing on cancer cells with increased CA IX expression. The database www.proteinatlas.org (accessed on 13 October 2022) contains data on gene expression in various cell lines. According to the data obtained from this database, A431 cells express CA IX at a very high level, which distinguishes them from human cell lines belonging to other tissues [https://www.proteinatlas.org/ENSG00000107159-CA9/cell+line (accessed on 13 October 2022)]. A431 cells are skin cancer cells, and their growth has already been intensely analyzed in hypoxia. […] Moreover, Ren and colleagues described that hypoxia modulates cellular pathways in A431 cells, which are associated with radioresistance and enhanced migration. Given the observations described above, we were expecting to reveal the high antiproliferative activity of the selected compounds against skin cancer cells. […] In hypoxia, the activity of tested compounds was increased, but the 50% inhibition of growth was never achieved.
The MCF7 human breast, A431 human skin cancer cells and K562 (ATCC CCL-243) chronic myelogenous leukemia cells were obtained from the ATCC collection. The MDR subline K562/4 [77] […] The growth inhibitory activity of compounds was assessed by the MTT test based on the metabolism of the MTT reagent (3-[4,5-dimethylthiazol-2-yl]-2,5-diphenyltetrazolium bromide) (Applichem) in living cells, with modifications as described previously in [49]. […] Culture plates were gently shaken, and the absorbance was measured at 571 nm with a reference wavelength of 630 nm on a MultiScan reader (ThermoFisher, Waltham, MA, USA). The viability of the cells was expressed as a percentage of the control. Dose-response curves were analyzed by regression analysis using sigmoid curves (Log(concentration) vs. normalized absorbance).

IC50 ([2]; hypoxia (1% O2), read-out: IC50 against MCF7 Cells, Hypoxia): 12.9 ± 1.2 µM | IC50 ([2]; normoxia, read-out: IC50 against MCF7 Cells, Normoxia): 24.5 ± 1.9 µM | melting point: > 250 °C
Structure (SMILES): NS(=O)(=O)c1ccc2c(c1)CCN2C(=O)c1cccc(Cl)c1 [Compound 4f, 1-(3-Chlorobenzoyl)indoline-5-sulfonamide]
effect of combination with Dox on viable K562/4 cells ([1]; combination with Dox (25 µM)): decline of viable K562/4 cells | cytotoxic activity against MDR subline K562/4 as monoagent ([1]; monoagent): low cytotoxic activity | inhibition of growth of A431 cells, hypoxia [3]: 44%
